These results are taken from US8962641B2, “Pyrimidine-substituted pyrrolidine derivatives, pharmaceutical compositions and uses thereof” (Boehringer Ingelheim International GmbH, priority 2013, dated 2015).

The IC50 is the concentration at which inhibition is half-maximal.

For this assay, the target named is human ACC2 (Homo sapiens (Human), UniProt O00763). Description: ACC2 assay (spectrophotometric 384 well assay, NADH-linked kinetic method). The note with it: hACC2 construct lacking 128 N-terminal amino acids; coupled lactate dehydrogenase/pyruvate kinase reaction, 340 nm, 25° C. Type of assay: biochemical. Summed up: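 Baculovirus/insect-cell human ACC2, anion-exchange purified; ADP formation coupled to pyruvate kinase/lactate dehydrogenase, NADH loss followed at 340 nm, 25° C, 15 min. Final 200 μM NADH and acetyl-CoA, 500 uM ATP; vehicle and no-acetyl-CoA wells set 100% and 0%.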
Chain of human ACC2 (O00763 129-2458): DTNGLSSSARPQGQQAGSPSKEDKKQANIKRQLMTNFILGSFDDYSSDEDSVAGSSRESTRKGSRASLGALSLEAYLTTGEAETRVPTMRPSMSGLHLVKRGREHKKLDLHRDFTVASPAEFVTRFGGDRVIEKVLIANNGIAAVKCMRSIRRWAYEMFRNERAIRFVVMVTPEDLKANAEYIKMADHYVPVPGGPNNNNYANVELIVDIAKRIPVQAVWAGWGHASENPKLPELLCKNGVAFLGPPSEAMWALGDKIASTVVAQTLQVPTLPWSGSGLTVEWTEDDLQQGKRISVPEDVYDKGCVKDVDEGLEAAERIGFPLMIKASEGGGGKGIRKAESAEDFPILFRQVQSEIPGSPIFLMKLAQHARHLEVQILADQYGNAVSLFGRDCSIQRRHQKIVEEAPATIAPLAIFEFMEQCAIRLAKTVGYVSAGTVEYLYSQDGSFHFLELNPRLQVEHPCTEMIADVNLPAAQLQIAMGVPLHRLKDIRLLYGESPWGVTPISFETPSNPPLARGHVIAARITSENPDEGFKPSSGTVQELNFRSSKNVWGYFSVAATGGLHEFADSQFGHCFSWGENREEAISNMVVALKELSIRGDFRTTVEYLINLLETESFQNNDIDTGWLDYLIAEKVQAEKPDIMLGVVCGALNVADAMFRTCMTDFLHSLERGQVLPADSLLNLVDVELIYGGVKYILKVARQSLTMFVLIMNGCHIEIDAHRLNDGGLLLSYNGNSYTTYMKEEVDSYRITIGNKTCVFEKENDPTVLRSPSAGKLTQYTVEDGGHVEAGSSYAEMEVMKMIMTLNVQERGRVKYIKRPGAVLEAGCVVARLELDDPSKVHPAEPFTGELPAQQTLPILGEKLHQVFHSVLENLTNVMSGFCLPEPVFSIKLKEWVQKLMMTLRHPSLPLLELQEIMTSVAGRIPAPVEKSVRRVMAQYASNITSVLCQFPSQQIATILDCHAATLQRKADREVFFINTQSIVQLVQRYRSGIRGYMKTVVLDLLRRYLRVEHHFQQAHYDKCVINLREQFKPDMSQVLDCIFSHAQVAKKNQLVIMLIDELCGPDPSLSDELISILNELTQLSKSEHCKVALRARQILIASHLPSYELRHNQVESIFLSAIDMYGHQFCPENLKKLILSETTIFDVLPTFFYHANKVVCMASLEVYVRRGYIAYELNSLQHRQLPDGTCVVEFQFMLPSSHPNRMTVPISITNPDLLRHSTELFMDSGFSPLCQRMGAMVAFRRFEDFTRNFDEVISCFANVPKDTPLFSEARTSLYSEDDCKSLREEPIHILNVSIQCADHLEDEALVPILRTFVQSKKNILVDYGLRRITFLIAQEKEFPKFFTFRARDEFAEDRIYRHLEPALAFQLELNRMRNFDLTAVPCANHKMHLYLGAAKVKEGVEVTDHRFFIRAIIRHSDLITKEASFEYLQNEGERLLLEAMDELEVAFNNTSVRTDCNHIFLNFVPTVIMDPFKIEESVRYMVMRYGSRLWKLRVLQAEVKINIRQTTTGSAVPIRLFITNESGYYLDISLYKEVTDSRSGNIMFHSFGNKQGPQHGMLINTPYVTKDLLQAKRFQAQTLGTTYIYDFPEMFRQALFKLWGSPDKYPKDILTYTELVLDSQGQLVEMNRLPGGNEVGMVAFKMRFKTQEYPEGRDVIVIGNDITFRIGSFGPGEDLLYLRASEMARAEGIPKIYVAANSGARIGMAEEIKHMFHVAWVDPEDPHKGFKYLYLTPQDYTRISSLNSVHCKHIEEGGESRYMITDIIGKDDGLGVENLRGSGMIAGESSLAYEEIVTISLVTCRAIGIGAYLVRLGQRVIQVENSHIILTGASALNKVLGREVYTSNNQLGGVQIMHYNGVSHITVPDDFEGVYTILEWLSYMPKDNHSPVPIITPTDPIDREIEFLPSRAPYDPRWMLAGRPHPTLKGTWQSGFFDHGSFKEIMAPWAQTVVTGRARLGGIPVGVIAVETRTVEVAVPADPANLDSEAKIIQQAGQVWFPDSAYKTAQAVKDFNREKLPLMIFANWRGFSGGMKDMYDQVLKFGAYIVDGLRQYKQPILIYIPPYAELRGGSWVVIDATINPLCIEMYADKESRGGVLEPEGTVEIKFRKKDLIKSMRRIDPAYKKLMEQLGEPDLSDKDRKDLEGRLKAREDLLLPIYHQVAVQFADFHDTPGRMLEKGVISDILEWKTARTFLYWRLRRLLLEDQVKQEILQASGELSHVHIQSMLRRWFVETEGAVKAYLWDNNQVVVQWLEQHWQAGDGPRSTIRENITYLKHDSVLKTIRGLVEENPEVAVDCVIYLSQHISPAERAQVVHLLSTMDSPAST

The compound `C[C@H](NC(=O)N(C)C)c1ccc(O[C@H]2CCN(c3nc(N4CCOCC4)ncc3F)C2)cc1` [Example 3.18] registered an IC50 of 113 nM.

Take `CC(=O)N[C@@H](C)c1ccc(O[C@@H]2CCN(c3ncc(C4CC4)cn3)C2)cc1` [Example 6.4]: the IC50 was 1910 nM.

For the compound `CC(=O)N[C@@H](C)c1ccc(O[C@@H]2CCN(c3ncnc(N4CCCC4)c3Cl)C2)cc1` [Example 8.103], 120 nM corresponded to half-maximal inhibition (IC50).

The compound `CC(=O)N[C@@H](C)c1ccc(O[C@@H]2CCN(c3nc(N4CCOC(C)C4)ncc3Cl)C2)cc1` (some centres unmarked) [Example 8.186] gave an IC50 of 204 nM.

Compound `COCCN(C)c1ncc(Cl)c(N2CC[C@@H](Oc3ccc([C@H](C)NC(C)=O)cc3)C2)n1` [Example 8.130] had an IC50 of 79 nM.

Regarding `CC(=O)N[C@@H](C)c1ccc(O[C@@H]2CCN(c3ccnc(N(C)C(C)C)n3)C2)cc1` [Example 8.25], inhibition was half-maximal at 294 nM (IC50).

For the compound `CC(=O)N[C@@H](C)c1ccc(O[C@@H]2CCN(c3nc(N(C)C(C)C)ncc3F)C2)cc1` [Example 8.63], the IC50 is 71 nM.

On to `CC(=O)N[C@@H](C)c1ccc(O[C@@H]2CCN(c3ncnc(N4CCC5(CC5)C4)c3Cl)C2)cc1` [Example 8.113], for which it took 40 nM to reach half-maximal inhibition (IC50).

`CNC(=O)N[C@@H](C)c1ccc(OC2CCN(c3ncnc(OCC4CC4)c3F)C2)cc1` (some centres unmarked) [Example 3.11]: the IC50 was found to be 110 nM.

On to `COc1c(OC2CCCC2)ncnc1N1CC[C@@H](Oc2ccc([C@H](C)NC(C)=O)cc2)C1` [Example 7.55], for which the IC50 came to 69 nM.

On to `C[C@H](NC(=O)c1cnco1)c1ccc(OC2CCN(c3ccnc(N4CCOCC4)n3)C2)cc1` (some centres unmarked) [Example 2.6], for which it took 320 nM to reach half-maximal inhibition (IC50).

In the case of `CC(=O)N[C@@H](C)c1ccc(O[C@@H]2CCN(c3ncnc(OCC4CC4(F)F)c3F)C2)cc1` (some centres unmarked) [Example 7.34], the IC50 worked out at 63 nM.

For the compound `CC(=O)N[C@@H](C)c1ccc(O[C@@H]2CCN(c3nc(N4CCc5nocc5C4)ncc3F)C2)cc1` [Example 8.238], half-maximal inhibition (IC50) was put at 534 nM.

As to `CCC(=O)Nc1nc(C)c(C(=O)N[C@@H](C)c2ccc(O[C@@H]3CCN(c4ncnc(NCC5CC5)c4Cl)C3)cc2)s1` [Example 8.307], 94 nM corresponded to half-maximal inhibition (IC50).
